# In patent US9573907B2, “2, 4-pyrimidine derivatives and use thereof” (SNU R&DB FOUNDATION, priority 2009, dated 2017):
# Columns and labels:
# gp96tm transgenic mice = test system: gp96tm transgenic mice
# Protocol: Female gp96tm transgenic mice (Proc Natl Acad Sci USA. 2003 December 23; 100(26): 15824-15829) were bred and maintained at the animal center for pharmaceutical research, Seoul National University. We used age-matched, 12-26 weeks old mice in each experimental group. To suppress cell surface gp96 we used GPM1 compound. Dexamethasone and GPM1 were dissolved in 5% DMSO in phosphate-buffered saline (PBS) and control vehicle was 5% DMSO in PBS. Compounds were administered i.p. every 24 h for 2 months (30 mg/kg/day). Three groups of each 9 mice were examined. All procedures were conducted in accordance with the Guide for the Care and Use of Laboratory Animals, published by the Korean National Institute of Health.
# Spleen and lymph node cell suspensions were prepared by grindling tissue through sterile mesh and erythrocytes were lysed with RBC lysis buffer (eBioscience, CA). For surface staining, antibodies were fluoresceinisothiocyanate (FITC)-, phycoerythrin (PE)-, PerCP-, or APC-conjugated. Antibodies used were CD4 (RM4-5, H129.12), CD8 (53-6,7), B220 (RA3-6B2), CD11b (M1/70), CD11c (HL3), CD44 (IM7), CD62L (MEL-14), CD69 (H1.2F3), CD25 (PC61.5), IgM (11/41), IgD (11-26C.2a) (BD Pharmingen, CA), MHC class II (M5/114.15.2), Foxp3 (FJK-16s) (eBioscience, CA), and gp96 (Santacruz, Calif.). After staining, cells were washed and analyzed on a FACS can flow cytometer using CellQuest software (BD Bioscience, Mountain View, Calif.).
# Kidney tissue sections of gp96tm transgenic mice were fixed in 10% formaldehyde in PBS and dehydrated using an alcohol gradient. After paraffin infiltration, the tissues were sectioned using a microtome, stained with hematoxylin and eosin (H&E) and analyzed by light microscopy. For immunofluorescent staining, kidneys were sectioned with a cryostat. These cryosections were blocked with normal goat serum, stained with FITC-conjugated goat anti-mouse Ig (BD pharmingen, CA), and then observed by fluorescent microscopy.
# The present inventors compared the effect of GPM1 with phosphate-buffered saline containing 5% DMSO and dexamethasone (Dex), an immunosuppressant of glucocorticoid family as negative and positive control, respectively. Each group consisted of age-matched nine female mice. […] After 2 month, the present inventors isolated MHC class II^+ splenocytes and lymph nodes from vehicle-, Dex-, and GPM1-treated mice and determined the portion of gp96^+ cells by flow cytometry.
# AIMP1 = target: T1, AIMP1 (Homo sapiens, UniProt Q12904); experiment: Surface plasmon resonance, binding to AIMP1; conditions: SPR, BIAcore 3000
# T1 sequence (Q12904 1-312): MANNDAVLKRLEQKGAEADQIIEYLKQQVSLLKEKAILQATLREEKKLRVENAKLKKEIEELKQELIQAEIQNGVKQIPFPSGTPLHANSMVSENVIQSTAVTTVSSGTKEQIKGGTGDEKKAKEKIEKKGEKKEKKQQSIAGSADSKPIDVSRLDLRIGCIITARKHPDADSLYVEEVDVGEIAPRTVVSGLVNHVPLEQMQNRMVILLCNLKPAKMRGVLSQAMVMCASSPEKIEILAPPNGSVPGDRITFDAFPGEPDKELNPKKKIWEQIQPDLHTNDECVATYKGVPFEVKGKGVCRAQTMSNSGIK
# From the text: The present inventors compared the dose-dependent effect of GPM1 and NC1 on the interaction of gp96 and AIMP1 using ELISA. […] The present inventors monitored the binding kinetics of GPM1 to gp96 or AIMP1 by surface plasmon resonance (SPR) using BIAcore 3000. […] To further define the GPM1 binding region of gp96 (Han, J. M., Park, S. G., Liu, B., Park, B. J., Kim, J. Y., Jin, C. H., Song, Y. W., Li, Z. & Kim, S. Am. J. Pathol. 170, 2042-2054 (2007)), the present inventors introduced point mutations at L707, V706, V712, L713, F714, Y731 and M738 that are located within AIMP1 binding region of gp96 and monitored how the mutations at these sites would affect the binding of GPM1 to gp96 using SPR method.
# gp96 = gp96 (Homo sapiens, UniProt P14625); experiment: Surface plasmon resonance, GPM1 binding to gp96 WT; set-up: made in house; host or cells: Escherichia coli BL21 (DE3)
# Protocol: Human gp96 was expressed as His tag fusion protein in Escherichia coli BL21 (DE3) and purified by nickel affinity chromatography. His-tagged human gp96 was immobilized onto CM5 sensor chips using standard amine coupling2. PBS was used as a running buffer. The carboxymethyl dextran surface within one side of the flow cell was activated with a 7-min injection of a 1:1 ratio of 0.4M EDC and 0.1M NHS. The protein was coupled to the surface with a 7-min injection of gp96 diluted in 10 mM sodium acetate, pH 3.7. Remaining activated groups were blocked with a 7-min injection of 1.0M ethanolamine, pH 8.5. GPM1 compound was dissolved directly in the PBS running buffer containing 1% DMSO and injected at a flow rate of 20 μl/min at 25° C. and the binding was determined by the change in resonance units (RU). The compound concentration varied from 10 nM to 25 μM and each concentration was tested at least three times. All of the bound complexes dissociated back to baseline within a reasonable time frame. Therefore, no regeneration was required. Sensorgram was processed by subtracting the binding response recorded from the control surface, followed by subtracting an average of the buffer blank injections from the reaction spot. To determine kinetic rate constants, all data sets were fit to a simple 1:1 binding with drifting baseline model using BIAevaluation program.
# [1] = spleen and lymph nodes, 30 mg/kg
# Sequence of gp96 (P14625 22-803): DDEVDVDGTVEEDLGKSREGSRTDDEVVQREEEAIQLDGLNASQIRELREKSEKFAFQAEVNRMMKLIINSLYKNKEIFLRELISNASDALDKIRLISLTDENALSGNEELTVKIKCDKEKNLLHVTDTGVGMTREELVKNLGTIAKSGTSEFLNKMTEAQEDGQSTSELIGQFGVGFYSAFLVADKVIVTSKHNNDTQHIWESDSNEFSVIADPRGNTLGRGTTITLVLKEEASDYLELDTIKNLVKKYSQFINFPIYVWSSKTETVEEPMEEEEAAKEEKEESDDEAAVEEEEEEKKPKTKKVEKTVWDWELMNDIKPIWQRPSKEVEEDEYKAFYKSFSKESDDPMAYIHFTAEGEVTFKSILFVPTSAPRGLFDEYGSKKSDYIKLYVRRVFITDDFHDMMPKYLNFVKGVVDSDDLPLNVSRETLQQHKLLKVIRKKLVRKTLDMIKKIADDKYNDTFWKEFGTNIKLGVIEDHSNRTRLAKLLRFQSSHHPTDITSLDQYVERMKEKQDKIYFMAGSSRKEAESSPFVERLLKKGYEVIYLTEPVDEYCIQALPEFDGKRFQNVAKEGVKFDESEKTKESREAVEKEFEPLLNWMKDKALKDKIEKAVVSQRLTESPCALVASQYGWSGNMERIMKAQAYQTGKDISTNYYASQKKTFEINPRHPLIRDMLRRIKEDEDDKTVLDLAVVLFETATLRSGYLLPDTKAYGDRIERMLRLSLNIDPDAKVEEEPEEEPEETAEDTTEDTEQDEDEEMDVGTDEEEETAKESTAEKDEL
smiles,measurement,setting,value
"COC(=O)[C@@H](Oc1nc(OC)cc(OC)n1)C(C)C [GPM1, (S)-methyl 2-(4,6-dimethoxypyrimidin-2-yloxy)-3-methylbutanoate]",glomerulonephritis phenotypes and glomerular immunoglobulin deposition,gp96tm transgenic mice; kidney sections,lessened
same,total cell count (spleen),"gp96tm transgenic mice; mouse, in vivo, 30 mg/kg/day",4.56 ± 1.44 × 10^6
same,adverse effects / death during administration,"gp96tm transgenic mice; mouse, in vivo, ip, 30 mg/kg",did not give apparent adverse effects
same,DNA-specific autoantibody levels,gp96tm transgenic mice; serum,reduced
same,Nuclear antigen-specific autoantibody levels,gp96tm transgenic mice; serum,reduced
same,"total serum levels of IgG1, IgG2b, IgG3, IgM, and IgA","gp96tm transgenic mice; serum, ELISA",reduced
same,CD4+CD25+Foxp3+ regulatory T cell population,gp96tm transgenic mice; spleen and lymph nodes,increase
same,population of CD4+ memory cells and activated CD4+ T cells,gp96tm transgenic mice; spleen and lymph nodes,reduction
same,B220+ population,gp96tm transgenic mice; [1],reduced
same,MHC class II+ population,gp96tm transgenic mice; [1],reduced
same,mature B cell population (B220+IgM+IgD+),gp96tm transgenic mice; splenocytes,decreased
same,ICOSL levels in CD11b+CD11c+ myeloid DC,"gp96tm transgenic mice; splenocytes, 30 mg/kg",significantly reduced
same,ICOSL levels in CD11b+CD11c− macrophages,"gp96tm transgenic mice; splenocytes, 30 mg/kg",suppressed
same,ICOSL levels in CD11b−CD11c+ lymphoid DCs,"gp96tm transgenic mice; splenocytes, 30 mg/kg",little difference
same,percentages of gp96+ MHC class II+ cells,"gp96tm transgenic mice; splenocytes, after 2 month, 30 mg/kg",~41%
same,Proteinuria,gp96tm transgenic mice; urine,reduced
same,binding to AIMP1,AIMP1,no apparent binding
same,Kd,gp96,0.0879 µM
same,koff (dissociation rate constant),gp96,0.0154 s⁻¹
same,kon,gp96; read-out: Ka,175000 M⁻¹ s⁻¹
